Data: patent US20250163119A1, “COMPOUNDS FOR THE TREATMENT OF DIABETES OR OBESITY” (Eli Lilly and Company, priority 2023, published 2025)
*1 amine or outer side, *2 acyl side, *3 side chain or, on linkers, in order; H or OH if unused. Where a SMILES comes first, the peptide text is derived from it. Bridges are numbered along the chain shown (N, C = ends). Roman numbers before positions name the chains, in order. Side-chain parts run from the residue outwards. [ ]: non-standard residue; d: D form. The star is where a group is joined. C20 diacid = O=C(O)CCCCCCCCCCCCCCCCCCC(=O)*; γGlu = O=C(O)[C@H](CCC(=O)[*:2])N[*:1]; αMeL = CC(C)C[C@](C)(N)C(=O)O; AEEA = NCCOCCOCC(=O)O; Aib = CC(C)(N)C(=O)O

Assays:
human CRHR2 = molecular target: T1, human CRHR2 (Homo sapiens, UniProt Q13324); assay: Human CRHR2 cAMP assay (HTRF) in HEK293 cells stably expressing human CRHR2; assay type: cell-based; settings: HEK293 cells overexpressing human CRHR2; relative EC50, maximum 10 nM human UCN2; mean ± SE; read-out: hCRHR2 cAMP EC50 (pM, ± SE)
T1 construct: expressed in transfected cells
T1 sequence (Q13324 1-438 isoform Q13324-2): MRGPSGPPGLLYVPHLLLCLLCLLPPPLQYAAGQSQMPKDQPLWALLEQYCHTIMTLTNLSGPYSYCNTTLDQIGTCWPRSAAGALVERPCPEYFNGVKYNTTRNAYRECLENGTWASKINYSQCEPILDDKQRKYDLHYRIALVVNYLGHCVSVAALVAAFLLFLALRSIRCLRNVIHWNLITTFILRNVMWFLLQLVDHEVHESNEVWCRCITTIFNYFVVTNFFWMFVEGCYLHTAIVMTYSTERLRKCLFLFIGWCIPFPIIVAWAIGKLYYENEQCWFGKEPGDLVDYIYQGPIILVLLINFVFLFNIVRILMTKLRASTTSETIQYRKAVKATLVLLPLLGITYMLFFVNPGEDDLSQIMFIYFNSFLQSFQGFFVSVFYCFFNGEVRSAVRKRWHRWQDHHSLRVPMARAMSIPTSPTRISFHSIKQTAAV
Protocol: (§1) The corticotropin-releasing hormone (CRH) receptor 1 and 2 (CRHR1 and CRHR2) are GPCRs that were functionally coupled to Gs proteins. Stimulation of these receptors results in an increased production of intracellular cAMP, which can be detected using standard in vitro technologies. In vitro activity of peptides was measured by the amount of cAMP formed in human CRHR1 and CRHR2 overexpressed cells.
(§2) Human CRHR1 and CRHR2 receptors were stably expressed in human embryonic kidney cells (HEK293) under control of a pcDNA expression vector. The HEK293 cell line was cultured in DMEM 1× (Gibco, 93-0152DK) supplemented with 10% FBS, 1 mM sodium pyruvate, 1×MEM NEAA, 1× GlutaMAX and 10 mM HEPES. The plasmids of human CRHR1-pQCXIP (T7364) and human CRHR2b-R2683puro (T16761) DNA were transfected into HEK293 cells using Lipo fectAMINE 3000 Transfection reagent (Invitrogen, L3000001). After 20 days under selection, the mRNA levels from different clones were measured to confirm the expression of human CRHR1 and CRHR2 genes. To determine the function of over-expressed CRHR cells, the intracellular cAMP levels in response to human UCN1 and UCN2 were measured and compared to the expression of CRHR1 and CRHR2 mRNA in each clone.
(§3) Human CRHR1 cells were cultured in DMEM 1× (Gibco, 93-0152DK) supplemented with 10% FBS, 1 mM sodium pyruvate, 1×MEM NEAA, 1×GlutaMAX, 10 mM HEPES, and 800 μg/ml G418. Human CRHR2 cells were cultured at the same media (DMEM 1×, 10% FBS, 1 mM sodium pyruvate, 1×MEM NEAA, 1×GlutaMAX, 10 mM HEPES) in the presence of 0.5 ug/mL puromycin. Cultured cells were grown to 90% confluency and harvested. The cells were frozen at 10×10e6/ml in a mixture of […] fetal bovine serum plus 7% DMSO and stored in liquid nitrogen until use.
(§4) On the day of the assay, the frozen cells were thawed and diluted in assay buffer (Phenol Red free MEM (Corning, 17-305-CV, lot #32121010), 0.1% Casein (Sigma C4765, lot #SLCG2120), 5 mM HEPES pH 7.4 containing 0.25 mM IBMX). 10 ul of human CRHR1 cells (25,000 cells) or 10 μL of human CRHR2 cells (5,000 cells) were dispensed into each well of white poly-D-lysine coated 384-well plates (Corning cat #354661). Test compounds diluted in DMSO were added (200 nL/well) in a 1:3 dilution series using ECHO acoustic liquid handler (Beckman). The mixture of cells and test compounds were incubated at 37° C. for 1 hour for the hCRHR1 plate, while the CRHR2 plates were incubated at room temperature for 30 min.
(§5) The amount of intracellular cAMP was quantitated using HTRF technology (Homogeneous Time Resolved Fluorescence; Cisbio) as per vendor instructions. Briefly, 10 uL CAMP-d2 conjugate and 10 uL anti-CAMP-cryptate conjugate in lysis buffer were incubated with the treated cells at room temperature for 60 min. The HTRF signal was immediately detected using an Envision plate reader (Perkin-Elmer) to calculate the ratio of fluorescence at 665 to 620 nm.
(§6) Raw fluorescence data for concentration curves of the peptides in Table 2 and Table 3 were converted to cAMP amount (pmol/well) using a cAMP standard curve generated for each experiment.

human CRHR1 = molecular target: T2, human CRHR1 (Homo sapiens, UniProt P34998); assay: Human CRHR1 cAMP assay (HTRF) in HEK293 cells stably expressing human CRHR1; assay type: cell-based; settings: HEK293 cells overexpressing human CRHR1; relative EC50, maximum 66 nM human UCN1; mean ± SE; read-out: hCRHR1 cAMP EC50 (pM, ± SE)
T2 construct: expressed in transfected cells
T2 sequence (P34998 24-415): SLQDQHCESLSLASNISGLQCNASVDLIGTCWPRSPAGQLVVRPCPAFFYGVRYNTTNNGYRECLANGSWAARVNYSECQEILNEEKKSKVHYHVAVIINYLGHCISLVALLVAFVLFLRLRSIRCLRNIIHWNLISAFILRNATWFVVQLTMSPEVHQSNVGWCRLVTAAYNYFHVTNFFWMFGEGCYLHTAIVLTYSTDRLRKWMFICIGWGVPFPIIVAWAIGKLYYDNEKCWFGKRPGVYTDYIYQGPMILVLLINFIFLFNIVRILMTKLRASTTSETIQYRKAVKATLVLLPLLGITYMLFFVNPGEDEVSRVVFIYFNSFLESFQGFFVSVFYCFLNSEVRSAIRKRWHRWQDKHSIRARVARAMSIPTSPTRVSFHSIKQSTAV
Protocol: as §1, §2, §3, §4, §5, §6

Row | EC50 (human CRHR2) [pM] | EC50 (human CRHR1) [pM] | Compound
1 | 5.7 ± 0.1 | > 1e+07 | CC[C@H](C)[C@H](NC(C)=O)C(=O)N[C@H](C(=O)N[C@H](C(=O)N[C@@H](CO)C(=O)N[C@@](C)(CC(C)C)C(=O)N[C@@H](CC(=O)O)C(=O)N[C@@H](C(=O)N1CCC[C@H]1C(=O)N[C@H](C(=O)NCC(=O)N[C@@](C)(CC(C)C)C(=O)N[C@@H](CC(C)C)C(=O)N[C@@H](CCC(N)=O)C(=O)N[C@H](C(=O)N[C@@H](CCCCN)C(=O)N[C@@H](CC(C)C)C(=O)N[C@@H](CCC(=O)O)C(=O)N[C@@H](CCC(N)=O)C(=O)N[C@@H](CCC(=O)O)C(=O)N[C@@H](CCCNC(=N)N)C(=O)N[C@@H](C)C(=O)N[C@@H](CCC(=O)O)C(=O)N[C@@H](CCCCN)C(=O)N[C@@H](C)C(=O)N[C@@H](CCCNC(=N)N)C(=O)N[C@@H](CCC(N)=O)C(=O)N[C@@H](CCC(N)=O)C(=O)N[C@@H](C)C(=O)N[C@@H](CCCCNC(=O)CC[C@H](NC(=O)COCCOCCNC(=O)CC[C@H](NC(=O)CCCCCCCCCCCCCCCCCCC(=O)O)C(=O)O)C(=O)O)C(=O)N[C@@H](CCC(=O)O)C(=O)N[C@@H](CC(N)=O)C(=O)N[C@H](C(=O)N[C@@H](CCC(=O)O)C(=O)N[C@H](C(=O)N[C@@H](CC(C)C)C(=O)N[C@@H](C)C(=O)N[C@@H](CCC(N)=O)C(=O)N[C@H](C(N)=O)C(C)C)[C@@H](C)CC)[C@@H](C)O)[C@@H](C)CC)[C@@H](C)O)C(C)C)[C@@H](C)O)C(C)C [SEQ ID NO: 30, Ac-IVTS αMeL D (D-Val) PTG αMeL LQIKLEQERAEKARQQAK(γE-(2-[2-(2-Amino-ethoxy)-ethoxy]-acetyl)-γE-CO-(CH2)18-CO2H)ENTEILAQV-NH2] (Ac-IVTS[αMeL]D[dV]PTG[αMeL]LQIKLEQERAEKARQQAK([γGlu-AEEA-γGlu-C20 diacid])ENTEILAQV-NH2)
2 | 10.1 ± 2.5 | > 1e+07 | CC[C@H](C)[C@H](NC(=O)[C@H](CCC(=O)O)NC(=O)[C@H](C)NC(=O)[C@H](C)NC(=O)[C@H](CCC(=O)O)NC(=O)[C@H](CCCCNC(=O)CC[C@H](NC(=O)CNC(=O)[C@H](CCCCN)NC(=O)[C@H](CCC(=O)O)NC(=O)[C@H](CCCCN)NC(=O)[C@H](CCC(=O)O)NC(=O)[C@H](CCCCN)NC(=O)[C@H](CCC(=O)O)NC(=O)CCCCCCCCCCCCCCCCCCC(=O)O)C(=O)O)NC(=O)[C@H](C)NC(=O)[C@H](CCC(N)=O)NC(=O)[C@H](CCC(N)=O)NC(=O)[C@H](CCCNC(=N)N)NC(=O)[C@H](C)NC(=O)[C@H](CCCCN)NC(=O)[C@H](CCC(=O)O)NC(=O)[C@H](C)NC(=O)[C@H](CCCNC(=N)N)NC(=O)[C@H](CCC(=O)O)NC(=O)[C@H](CCC(N)=O)NC(=O)[C@H](CCC(=O)O)NC(=O)[C@H](CC(C)C)NC(=O)[C@@H](NC(=O)[C@H](CCCCN)NC(=O)[C@H](CCC(N)=O)NC(=O)[C@H](CC(C)C)NC(=O)[C@](C)(CC(C)C)NC(=O)C(C)(C)NC(=O)[C@@H](NC(=O)[C@@H]1CCCN1C(=O)[C@@H](NC(=O)[C@H](CC(=O)O)NC(=O)[C@](C)(CC(C)C)NC(=O)[C@H](CO)NC(=O)[C@@H](NC(=O)[C@@H](NC(=O)[C@@H](NC(=O)[C@H](CO)NC(=O)[C@@H]1CCCN1C(=O)[C@H](CO)NC(=O)CNC(C)=O)[C@@H](C)CC)C(C)C)[C@@H](C)O)C(C)C)[C@@H](C)O)[C@@H](C)CC)C(=O)N[C@@H](CC(C)C)C(=O)N[C@@H](C)C(=O)N[C@@H](CCC(N)=O)C(=O)N[C@H](C(N)=O)C(C)C [SEQ ID NO: 6, Ac-GSPSIVTS αMeL DVPT Aib αMeL LQKILEQERAEKARQQAK(γE-GKEKEKE-CO-(CH2)18-CO2H)EAAEILAQV-NH2]
3 | 15.5 ± 3.3 | > 1e+07 | I: Ac-GSPSIVTS[αMeL]DVPT[Aib][αMeL]LQKILEQERAEKARQQAKEAAEILAQV-NH2 / II: {C20 diacid-γGlu}-EKEKEK[AEEA] (amide I:33-II:C) [SEQ ID NO: 9, Ac-GSPSIVTS αMeL DVPT Aib αMeL LQKILEQERAEKARQQAK((2-[2-(2-Amino-ethoxy)-ethoxy]-acetyl)-KEKEKE-γE-CO-(CH2)18-CO2H)EAAEILAQV-NH2]
